Reference: article PMC10374545, “A small molecule inhibitor of PTP1B and PTPN2 enhances T cell anti-tumor immunity” (Nature Communications, 2023)
Where “and” joins values, the source holds several entries; their conditions need not be identical. Equal entries are not always repeated.

Assays:
[1] = test system: AT3 mammary tumors; assay: AT3 tumor growth in Lck-Cre;Ptpn2fl/fl mice; format: in vivo, mouse; set-up: key to Tumour growth: tumour size in mm^2 (two-dimensional caliper measurement); Tumour weights / Tumour weights (mean): unit not given here; settings: for Tumour size (mean): CMP-182 in LCK-CRE-PTPN2 mice (Group C), in mm2; for Tumour growth: individual mice (Figure 8D)
Description: (§1) Male or female mice were injected subcutaneously with 5 × 10^5 MC38 tumor cells resuspended in 100 μl D-PBS into the flank. Alternatively, female mice were injected orthotopically with 5 × 10^5 AT3 or AT3-OVA or PTPN2-deleted AT3 or AT3-OVA tumor cells resuspended in 20 μl D-PBS into the fourth mammary fat pad. Tumor sizes were measured in two dimensions (mm^2) using electronic callipers two to three times per week as soon as tumors were palpable (20–25 mm^2).

[2] = Histology of liver, lungs, salivary glands, colon (H&E, Sirius Red); format: in vivo, mouse; settings: 10 mg/kg i.v.
[3] = test system: STAT-5 Y694 phosphorylation in NK cells; assay: IL-15-induced p-STAT-5 in NK cells; format: cell-based, mouse; settings: 0.1 or 1 (µM in figure, µg/ml in legend)
Description: (§2) proliferation in vitro. a-b) NK cells from C57BL/6 male mice (n=3 per group) were expanded […]
(§3) µg/ml) or vehicle (1% v/v DMSO) in the absence of IL-15. a) NK cells were re-stimulated for 15 min with the indicated amounts of IL-15 and Y694 phosphorylated STAT-5 (p-STAT-5) mean fluorescence intensities (MFIs) determined by flow cytometry. b) Alternatively, NK cells were stained with carboxyfluorescein succinimidyl ester (CFSE, Invitrogen) and then re-stimulated with the indicated amounts of IL-15 for 96 h and NK cell proliferation (CFSE dilution) monitored by flow cytometry. c-d) NK cells from C57BL/6 male mice (n=3 per group) were expanded ex vivo in the presence of IL-15 and then pre-treated with CMP-182 (0.1 or 1 µg/ml) or vehicle in the absence of IL-15. NK cells were re-stimulated with either IL-12 (10 ng/ml) or IL-18 (100 ng/ml) or with α-NK1.1 or α-Ly49H for 4 h. NK cells were maintained in 10 ng/ml IL-15 throughout the 4 h incubation time. Percentages of c) IFN-γ+ and d) CD107A+ NK cells were determined by flow cytometry. In (a-d) results shown are means ± SEM and are representative of at least two independent experiments.

[4] = test system: NK cells; assay: NK cell activation (IFN-γ+, CD107A+) by cytokines or α-NK1.1/α-Ly49H; format: cell-based, mouse; settings: cytokines or crosslinking NK1.1, Ly49H
Description: as §2, §3

[5] = test system: AT3-OVA mammary tumors; assay: AT3-OVA tumor growth in Rag1-/- mice; format: in vivo, mouse; set-up: key to Tumour growth: tumour size in mm^2 (two-dimensional caliper measurement); Tumour weights: unit not given here; settings: for Tumour size RAG1, mean: in mm2
Description: as §1

[6] = test system: OT-I CD8+ T cells; assay: T cell activation assay (CD25, CD69 by flow cytometry); format: cell-based, mouse; settings: for CD25, group mean (Mean 2) / CD69, group mean (Mean 2): Fig. 2A; for CD25 (MFI), single replicates / CD69 (MFI), single replicates: N4 1 nM, 1 μM, 48 h, Fig. 2A raw data
Description: The cell surface markers CD8, CD25, and CD69 were analyzed using fluorophore-conjugated antibodies by flow cytometry.

[7] = test system: NK cells; assay: NK cell proliferation (CFSE dilution); format: cell-based, mouse; settings: IL-15, 96 h; 0.1 or 1 (µM in figure, µg/ml in legend)
Description: as §2, §3

[8] = Lck-Cre;Ptpn2fl/fl (2K) OT-I cells, listed as 2KI
[9] = wild type OT-I cells + inhibitor, n 6
[10] = wild type OT-I cells, listed as WTI

CC(C)(O)CCOc1ccc2cc(O)c(N3CC(=O)NS3(=O)=O)c(F)c2c1 [Compound 182, 5-(1-Fluoro-3-hydroxy-7-(3-hydroxy-3-methylbutoxy)naphthalen-2-yl)−1,2,5-thiadiazolidin-3-one 1,1-dioxide]
AT3 tumor growth in Lck-Cre;Ptpn2fl/fl mice ([1]; 10 mg/kg i.v., beyond PTPN2 deletion in T cells): further suppressed tumor growth
eradication of AT3 tumors in Lck-Cre;Ptpn2fl/fl mice ([1]; 10 mg/kg i.v., tumors eradicated/total): 3/6
Tumour weights (mean) ([1]; AT-3 tumours, CMP-182 in LCK-CRE-PTPN2 mice): 7
Tumour size (mean) ([1]; AT-3 tumours, time point 7): 19.03
Tumour size (mean) ([1]; AT-3 tumours, time point 10): 21.39
Tumour size (mean) ([1]; AT-3 tumours, time point 12): 20.59
Tumour size (mean) ([1]; AT-3 tumours, time point 14): 19.84
Tumour size (mean) ([1]; AT-3 tumours, time point 16): 13.84
Tumour size (mean) ([1]; AT-3 tumours, time point 19): 12.75
Tumour size (mean) ([1]; AT-3 tumours, time point 21): 13.01
Tumour size (mean) ([1]; AT-3 tumours, time point 23): 11.77
Tumour weights, median ([1]; AT-3 tumours, CMP-182 in LCK-CRE-PTPN2 mice, n=6): 7.500, n=6
Tumour growth ([1]; AT-3 tumours, LCK-CRE-PTPN2 mice n=6, day 7 post injection, listed as CMP-182): 13.566 (2×) and 20.8844 (2×) and 21.6987 (2×) and 6.7144 (2×) and 16.1674 (2×) and 35.1652 (2×)
Tumour growth ([1]; AT-3 tumours, LCK-CRE-PTPN2 mice n=6, day 10 post injection, listed as CMP-182): 12.25 (2×) and 27.03 (2×) and 24 (2×) and 10.5 (2×) and 18.4 (2×) and 36.18 (2×)
Tumour growth ([1]; AT-3 tumours, LCK-CRE-PTPN2 mice n=6, day 12 post injection, listed as CMP-182): 9 (2×) and 29.15 (2×) and 22.5 (2×) and 12.6 (2×) and 15.2 (2×) and 35.1 (2×)
Tumour growth ([1]; AT-3 tumours, LCK-CRE-PTPN2 mice n=6, day 14 post injection, listed as CMP-182): 9 (2×) and 25.92 (2×) and 22.5 (2×) and 13.32 (2×) and 14.35 (2×) and 33.92 (2×)
Tumour growth ([1]; AT-3 tumours, LCK-CRE-PTPN2 mice n=6, day 16 post injection, listed as CMP-182): 0 (4×) and 24.48 (2×) and 22.95 (2×) and 7.5 (2×) and 28.08 (2×)
Tumour growth ([1]; AT-3 tumours, LCK-CRE-PTPN2 mice n=6, day 19 post injection, listed as CMP-182): 0 (4×) and 22.55 (2×) and 22.95 (2×) and 4 (2×) and 27 (2×)
Tumour growth ([1]; AT-3 tumours, LCK-CRE-PTPN2 mice n=6, day 21 post injection, listed as CMP-182): 0 (4×) and 27.56 (2×) and 22.5 (2×) and 4 (2×) and 24 (2×)
Tumour growth ([1]; AT-3 tumours, LCK-CRE-PTPN2 mice n=6, day 23 post injection, listed as CMP-182): 0 (4×) and 25 (2×) and 22.54 (2×) and 1 (2×) and 22.08 (2×)
Tumour weights ([1]; AT-3 tumours, LCK-CRE-PTPN2 mice n=6, individual mice (Figure 8D), listed as CMP-182): 0 and 12 and 10 and 5 and 15
liver fibrosis (Picrosirius red) [2]: no signs of liver fibrosis
lymphocytic infiltrates in liver, lungs, salivary glands and colon [2]: did not observe any overt lymphocytic infiltrates
IL-15-induced p-STAT-5 in NK cells [3]: did not enhance
NK cell activation (IFNγ or CD107A expressing cells) [4]: nor did it affect
AT3-OVA mammary tumor growth in Rag1-/- mice ([5]; 10 mg/kg i.v., mice lack T and B cells): no effect
Tumour growth ([5]; Figure 6E, RAG1 mice, n=6, individual animals, day 9 post injection, listed as CMP-182): 7.7488 and 14.8962 and 11.224 and 3.9597 and 9.447 and 12.6224
Tumour growth ([5]; Figure 6E, RAG1 mice, n=6, individual animals, day 11 post injection, listed as CMP-182): 19.6245 and 35.0523 and 26.8632 and 16.6934 and 15.0024 and 31.8592
Tumour growth ([5]; Figure 6E, RAG1 mice, n=6, individual animals, day 14 post injection, listed as CMP-182): 31.9081 and 32.6823 and 36.7674 and 25.1923 and 36.3137 and 48.8592
Tumour growth ([5]; Figure 6E, RAG1 mice, n=6, individual animals, day 16 post injection, listed as CMP-182): 59.5752 and 89.2808 and 73.4616 and 57.4821 and 68.9011 and 83.2686
Tumour growth ([5]; Figure 6E, RAG1 mice, n=6, individual animals, day 18 post injection, listed as CMP-182): 74.7088 and 110.046 and 88.7004 and 79.0656 and 57.8454 and 92.4255
Tumour growth ([5]; Figure 6E, RAG1 mice, n=6, individual animals, day 21 post injection, listed as CMP-182): 75.82 and 124.872 and 109.74 and 89.0525 and 89.04 and 103.68
Tumour growth ([5]; Figure 6E, RAG1 mice, n=6, individual animals, day 23 post injection, listed as CMP-182): 84.728 and 134.64 (3×) and 89.0525 and 133.35
Tumour growth ([5]; Figure 6E, RAG1 mice, n=6, individual animals, day 25 post injection, listed as CMP-182): 88 and 156.6 and 126.72 and 89.0525 and 186.66 and 168.74
Tumour weights ([5]; Figure 6E, RAG1 mice, n=6, individual animals, listed as CMP-182): 270 and 560 and 890 and 220 and 490 and 330
TUMOR WEIGHTS RAG1, median ([5]; RAG1 mice, column B (Data Set-B), n=6, Figure 6E): 410.0, n=6
Tumour size RAG1, mean over all time points (column mean) ([5]; RAG1 mice, n=6, Figure 6E, mean of 8 time points): 72.3 mm2
Tumour size RAG1, mean ([5]; RAG1 mice, n=6, time point 9, Figure 6E): 9.983
Tumour size RAG1, mean ([5]; RAG1 mice, n=6, time point 11, Figure 6E): 24.18
Tumour size RAG1, mean ([5]; RAG1 mice, n=6, time point 14, Figure 6E): 35.29
Tumour size RAG1, mean ([5]; RAG1 mice, n=6, time point 16, Figure 6E): 71.99
Tumour size RAG1, mean ([5]; RAG1 mice, n=6, time point 18, Figure 6E): 83.8
Tumour size RAG1, mean ([5]; RAG1 mice, n=6, time point 21, Figure 6E): 98.7
Tumour size RAG1, mean ([5]; RAG1 mice, n=6, time point 23, Figure 6E): 118.5
Tumour size RAG1, mean ([5]; RAG1 mice, n=6, time point 25, Figure 6E): 136
CD25, group mean (Mean 2) ([6]; 2K OT-I cells + inhibitor, n 4): 49238
CD69, group mean (Mean 2) ([6]; 2K OT-I cells + inhibitor, n 4): 3065
CD25 (MFI), single replicates [6, 8]: 50690 and 58145 and 42341 and 45775
CD69 (MFI), single replicates [6, 8]: 3049 and 3660 and 3360 and 2191
antigen-induced activation of CD8+ T cells (CD25, CD69) ([6]; OT-I cells, SIINFEKL (N4)): enhanced
CD25, group mean (Mean 2) [6, 9]: 43739
CD69, group mean (Mean 2) [6, 9]: 2723
CD25 (MFI), single replicates [6, 10]: 44120 and 42537 and 42315 and 46694 and 45914 and 40851
CD69 (MFI), single replicates [6, 10]: 2509 and 2213 and 3486 and 2750 and 2693 and 2686
NK cell proliferation [7]: did not enhance
